Experiment [1] deals with splenic immune cells of 4T1-bearing mice. The experiment is described as follows: FACS profile of splenic immune cell populations in 4T1-bearing mice after STL-6014 PDT and Gemzar. It counts as in vivo. The procedure:
(§1) • (i) Bacteriochlorophyll Derivatives—The Bchl derivatives and RGD-conjugates thereof were provided by Steba Biotech (Rehovot, Israel). […] Concentration was verified by spectrophotometric measurement. STL-7012 was provided as dipotassium salt. Working solution was prepared by dissolving STL-7012 K^+ salt in 5% mannitol solution (1 mg/ml). […] WST11 was supplied as a powder and kept in the dark at −20° C. Stock was prepared by dissolving WST11 in DDW containing 5% glucose and 0.67% mannitol, aliquoted and lyophilized. Working solution was reconstituted with DDW and the concentration of solution was confirmed spectrophotometrically. Alternatively, Clinical WST11 (batch: P00611, and 10-130611) was supplied as lyophilized formulation. Material was dissolved in 5% dextrose, aliquoted and stored at −20° C. At the day of treatment the aliquot was thawed, filtered and the concentration of solution was confirmed spectrophotometrically. • (ii) Chemotherapeutic drugs preparation and storage—Gemcitabine (GEM, Gemzar®, Lilly) was purchased from a local pharmacy as a powder, dissolved in saline to a concentration of 38 mg/ml, aliquoted and stored at −20° C. Aliquots were thawed, diluted with saline to a desired concentration and used on the same day at a dose of 75 mg/kg. Cyclophosphamide (CTX, Endoxan®, Baxter Oncology Gmbh, Germany) was purchased from a local pharmacy. A stock solution of 20 mg/ml was prepared by dissolving in 0.9% NaCl, aliquoted and stored at −20° C. Aliquots were thawed, diluted with saline if needed to a desired concentration and used on the same day prepared at indicated doses. • (iii) Murine cell lines—Mammary luciferase (luc)-labeled 4T1 cell line (4T1-Luc) was a kind gift from Dr. Zvi Granot (Faculty of Medicine, The Hebrew University of Jerusalem, Israel); melanoma B16-F10 cell line was obtained from the American Type Culture Collection (ATCC, Manassas, Va.); bladder MB49 cell line was a kind gift from James Allison (MSKCC, New York, USA), and luc-labeled MB49-cell line was established using the murine stem cell virus (MSCV)-puromycin-luc-GFP construct (kindly provided by Dr. Emily Cheng, Human Oncology and Pathogenesis Program, MSKCC). 4T1 and MB49 cells were maintained in DMEM medium and B16-F10 cells in RPMI medium supplemented with 1 mmol/L sodium pyruvate, 10% fetal calf serum (FCS), 250 μg/ml hygromycin, 0.06 mg/ml penicillin and 0.1 mg/ml streptomycin. The cells were grown as monolayer at 37° C. in a humidified atmosphere (5% CO2, 95% air). • (iv) Murine tumor models—Female, Balb/c mice (6-8 week old) were grafted either subcutaneously (s.c.) into the right hind leg or orthotopically with 1×10^6 4T1 cells suspended in 50 or 1000 PBS. For the rechallenge study, 2×10^5 4T1 cells were orthotopically grafted. For bladder cancer model, 5×10^4 of MB49 or MB49-luciferase cell line were s.c. injected into the right flank of C57B/6 male mice (7-8 weeks old, Taconic, Hudson, N.Y.) 15 days prior to VTP treatment. For the efficacy study of VTP in immune compromised mice, the same number of MB49 cells was injected in the flank of Rag^−/− on C57B/6 background or C57B/6 male mice (7-8 week old, Jackson Laboratory, Bar Harbor, Me.). […] Whole body imaging of luciferase-transfected tumors and metastases were recorded five minutes following 75 mg Kg^−1 intraperitoneal (i.p.) injection of D-luciferin with respective filter sets. • (vi) PDT treatment protocol: 4T1-Luc cells were grafted in the mammary pad of Balb/c mice. […]

In experiment [2] the test system is orthotopic 4T1-Luc tumors. The experiment is described as follows: STL-6014 PDT and metronomic Gemzar in mice bearing 4T1-Luc tumors in the mammary pad (Scheme 1): primary tumor, survival, lung metastases, re-challenge. It counts as in vivo, Balb/c mice. The procedure: as §1
Experiment [3] has as its system CD8, Treg, Teff and TCM T cell populations. The experiment is described as follows: Adaptive immune response (T cell populations) of mice bearing MB49 tumors. Format: in vivo. Here is the method: • (i) Bacteriochlorophyll Derivatives—The Bchl derivatives and RGD-conjugates thereof were provided by Steba Biotech (Rehovot, Israel). […] Concentration was verified by spectrophotometric measurement. STL-7012 was provided as dipotassium salt. Working solution was prepared by dissolving STL-7012 K^+ salt in 5% mannitol solution (1 mg/ml). […] WST11 was supplied as a powder and kept in the dark at −20° C. Stock was prepared by dissolving WST11 in DDW containing 5% glucose and 0.67% mannitol, aliquoted and lyophilized. Working solution was reconstituted with DDW and the concentration of solution was confirmed spectrophotometrically. Alternatively, Clinical WST11 (batch: P00611, and 10-130611) was supplied as lyophilized formulation. Material was dissolved in 5% dextrose, aliquoted and stored at −20° C. At the day of treatment the aliquot was thawed, filtered and the concentration of solution was confirmed spectrophotometrically. • (ii) Chemotherapeutic drugs preparation and storage—Gemcitabine (GEM, Gemzar®, Lilly) was purchased from a local pharmacy as a powder, dissolved in saline to a concentration of 38 mg/ml, aliquoted and stored at −20° C. Aliquots were thawed, diluted with saline to a desired concentration and used on the same day at a dose of 75 mg/kg. Cyclophosphamide (CTX, Endoxan®, Baxter Oncology Gmbh, Germany) was purchased from a local pharmacy. A stock solution of 20 mg/ml was prepared by dissolving in 0.9% NaCl, aliquoted and stored at −20° C. […] Whole body imaging of luciferase-transfected tumors and metastases were recorded five minutes following 75 mg Kg^−1 intraperitoneal (i.p.) injection of D-luciferin with respective filter sets. • (vi) PDT treatment protocol: 4T1-Luc cells were grafted in the mammary pad of Balb/c mice. […]

Setting [4] is: 120 days follow up, monotherapy.

Take `Nc1ccn([C@@H]2O[C@H](CO)[C@@H](O)C2(F)F)c(=O)n1` [Gemzar, Gemcitabine]: the “percentage of G-MDSC/neutrophils and M-MDSC in spleen compared to control” value in experiment [1] (first week post treatment) is “significantly reduced”. The “effect on Treg populations in spleen compared with controls” value in experiment [1] (mouse, in vivo) was “Much smaller effects”. Further, in experiment [1] (second week post treatment), the “impact on MDSCs in spleen relative to control” value is “diminished”. Moreover, in experiment [2] (setting [4]), the “primary tumor cure” value is “no primary tumor cure” and the “survival compared to control (Kaplan-Meier)” value is “Extended mice survival”. The compound further registered a primary cure in experiment [2] (Gemzar only, 75 mg/kg i.p. metronomic) of 0%.

In the case of `CCC1c2cc3[n-]c(c(CC(=O)OC)c4nc(cc5[n-]c(cc(n2)C1C)c(C(C)=O)c5C)C(C)C4CCC(=O)[O-])c(C(=O)NCCS(=O)(=O)[O-])c3C.[K+].[K+].[Pd+2]` (stereo not drawn) [WST11, Palladium 3^1-oxo-15-methoxycarbonylmethyl-rhodobacteriochlorin 13^1-(2-sulfoethyl) amide dipotassium salt], in experiment [3] (6 days post treatment), the “CD8 cell population in the spleen, blood and draining lymph nodes” value was “significant elevation”; the “Treg populations (spleen, blood, lymph nodes)” value is recorded as “no significant effect”. Further, the “CD8 Tcell/Treg ratio” value in experiment [3] (day 6 post VTP) is on record as “no increase”.
